In patent US20110053954A1, “METHOD OF TREATMENT AND/OR PREVENTION OF BRAIN, SPINAL OR NERVE INJURY” (priority 2001, published 2011):

How the values were obtained:
Format in all cases: in vivo, rat
Male Sprague Dawley rats [1] = assay: Rotarod motor outcome after traumatic brain injury (impact acceleration model); details: i.v. at 30 minutes after injury, NK-1 antagonist 10 mg/kg, MK801 0.3 mg/kg, compared with saline vehicle, 24 h to 10 days post-injury
Procedure: (§1) Male Sprague Dawley rats (400±25 g) were pre-trained on both the Rotarod and Barnes maze so as to assess the effects of the compound on post-traumatic motor and cognitive outcome, respectively. After one week of training, rats were severely injured using the impact acceleration model of traumatic brain injury (2 meters) and administered either of the NK-1 receptor antagonist N-(3,5-bis-trifluoromethylbenzyl)-N-methyl-6-(4-methyl-piperazin-1-yl)-4-o-tolyl-nicotinamide (10 mg/kg i.v., based on active, free base), the NMDA (N-methyl-D-aspartate) antagonist MK801 ((+)-10,11-dihydro-5-methyl-5H-dibenzo[a,d]cyclo-hepten-5,10-diyldiammonium maleate; Dizocilpine maleate; 0.3 mg/kg i.v., based on active, free base) or 0.9% saline vehicle (n=10/group) at 30 minutes after injury.
Over the next 9 days, there was a gradual improvement in motor performance, however the deficit was always significant compared to pre-injury.

Male Sprague Dawley rats [2] = assay: Mortality after severe traumatic brain injury; details: i.v. at 30 minutes after injury, saline 30%
Procedure: as §1
Mortality in rats in this severe model of injury is normally between 20 and 30%. In the saline treated animals, mortality was indeed 30%. […] This high mortality was consistent with this injury level being severe as confirmed by post mortem gross histological analysis of all brains.

Male Sprague Dawley rats [3] = assay: Evans Blue extravasation as marker of blood brain barrier permeability after traumatic brain injury; details: Evans Blue i.v. at 4.5 h after injury, circulating 30 mins, saline standardized to 100%
Procedure: Edema formation in the immediate post-traumatic period is thought to be vasogenic in origin, where increased permeability of the blood brain barrier permits protein extravasation and water accumulation in the brain interstitium. We used Evans Blue extravasation as a marker of blood brain permeability after traumatic brain injury and treatment with the NK-1 receptor antagonist N-(3,5-bis-trifluoromethyl-benzyl)-N-methyl-6-(4-methyl-piperazin-1-yl)-4-o-tolyl-nicotinamide.
At 4.5 h after induction of brain injury, animals were administered i.v. Evans Blue which was allowed to circulate for 30 mins. At that time point, animals were sacrificed and their brains removed for analysis of Evans Blue penetration. The amount of Evans Blue accumulation in the brains of saline treated animals was standardized to 100%. […] As anticipated, uninjured (sham) animals had no significant Evans Blue accumulation in brain tissue.

Male Sprague Dawley rats [4] = assay: Barnes maze cognitive outcome after traumatic brain injury; details: i.v. at 30 minutes after injury
Procedure: as §1
Prior to injury, rats were trained to locate an escape tunnel (from aversive sound and light) within 20 sec. This time factor depends on the ability of the animal to learn and remember the location of the escape tunnel.

Male Sprague Dawley rats [5] = assay: Exploratory behavior and self-grooming (post-traumatic depression) after brain injury; details: brain injured rats, compared with non-injured animals
Male Sprague Dawley rats [6] = assay: Respiratory pattern and weaning off the ventilator after brain injury; details: brain injured rats
Procedure: as §1
This stability in respiration is thought to be due to both central effects on respiration and by the NK-1 receptor antagonist administered in the method of treatment of the present invention reducing pulmonary edema formation in brain injured animals.

SMILES: Cc1ccccc1-c1cc(N2CCN(C)CC2)ncc1C(=O)N(C)Cc1cc(C(F)(F)F)cc(C(F)(F)F)c1 [N-(3,5-bis-trifluoromethyl-benzyl)-N-methyl-6-(4-methyl-piperazin-1-yl)-4-o-tolyl-nicotinamide]
- motor outcome (Rotarod Motor Score) after brain injury (Male Sprague Dawley rats [1]): significantly better motor outcome
- mortality (Male Sprague Dawley rats [2]): 0%
- Evans Blue accumulation in brain relative to saline treated animals (Male Sprague Dawley rats [3]): 18%
- latency to escape the aversive stimuli (Barnes Cognitive Score) (Male Sprague Dawley rats [4]; at 24 h / at any time point after injury, pre-injury within 20 sec): did not demonstrate an increased latency
- latency to escape the aversive stimuli, course over the ensuing 9 days (Male Sprague Dawley rats [4]; days 2-10 post-injury): improved with each assessment
- exploratory behavior and self-grooming (Male Sprague Dawley rats [5]): not significantly different from non-injured animals
- weaning off of the ventilator (Male Sprague Dawley rats [6]; compared with any other treatment group): far more quickly
- respiratory pattern (Male Sprague Dawley rats [6]; compared with saline and MK801 treated counterparts): more stable respiratory pattern
